This note sets out measurements from patent publication US12208088B2 (Genentech, Inc., priority 2018, dated 2025).

Test [1] concerns primary human pan T cells. Nature of the test: Human T-cell IL2 induction assay. The following applies: IL-2, anti-CD3/anti-CD28 stimulated T cells. Format: cell-based. The protocol: Example B3: Human T-Cell IL2 Induction Assay
Anti-CD3 and anti-CD28 activates TCR signaling in primary human pan T cells leading to IL-2 promoter induction. Secreted IL-2 in cell culture supernatant is detected by electrochemiluminescence using a capture antibody against IL-2 and an anti-IL-2 antibody labeled with SULFO-tag.
See www.mesoscale.com for additional electrochemiluminescence technology information.
Incubate primary human pan T cells with varying concentrations of test compounds for 30 minutes in a humidified incubator at 37° C. and 5% CO2. Transfer cells to a plate pre-coated with a fixed concentration of anti-human CD3 (determined separately for each donor lot) and add soluble anti-human CD28 (final concentration=1 μg/ml). Stimulate cells in a humidified incubator at 37° C. and 5% CO2 for 4 hours. Transfer 25 μl of supernatant to a MSD single spot plate pre-coated with an anti-human IL-2 antibody. Incubate MSD plate overnight at 4° C. with gentle shaking. Wash MSD plate 4× with wash buffer. Add SULFO-tagged detection antibody at a 1:50 dilution and incubate at room temperature shaking for 2 hours. Wash MSD plate 4× with wash buffer and add […] 2×MSD read buffer. Read on an MSD instrument. Normalize data to stimulated/untreated controls to calculate % activity at each concentration of compound.
• Frozen Primary Human Pan-T Cells (StemCell Technologies #70024) • anti-human CD3 (OKT3 clone) (eBioscience #16-0037-81) • anti-human CD28 (CD28.2 clone) (BD #555725) • 96-well Human IL-2 tissue culture kit (MSD #K151AHB-4) Instrumentation: • Biomek FX for liquid handling (Beckman Coulter) • MSD SECTOR S 600 (Meso Scale Discovery)
Exemplary compounds of Formula (I) were tested in the human T-cell IL-2 induction assays. The % increase measured for IL-2 in cells treated by the test compounds relative to untreated cells are provided in Table B2 for certain compounds.

The next test addresses HPK1 (Homo sapiens (Human), UniProt Q92918). Kind of test: HPK1 Lantha binding assay ("Lanth"). The following applies: binding assays; Morrison Ki fit. Summed up: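 Ki values are from Morrison-equation fitting of 665/615 nm TR-FRET signals, taking enzyme level, tracer level and tracer Kd into account. The assay mix held HPK1 (2 nM), Eu-anti-GST antibody (2 nM) and Tracer222 (15 nM). Incubations were two 1 h steps at 23 °C, on 5-fold serial compound dilutions.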

Structures are written as SMILES. Where a name gives a salt, the structure may show the parent alone.

HPK1, sequence (Q92918 1-346 limits assumed): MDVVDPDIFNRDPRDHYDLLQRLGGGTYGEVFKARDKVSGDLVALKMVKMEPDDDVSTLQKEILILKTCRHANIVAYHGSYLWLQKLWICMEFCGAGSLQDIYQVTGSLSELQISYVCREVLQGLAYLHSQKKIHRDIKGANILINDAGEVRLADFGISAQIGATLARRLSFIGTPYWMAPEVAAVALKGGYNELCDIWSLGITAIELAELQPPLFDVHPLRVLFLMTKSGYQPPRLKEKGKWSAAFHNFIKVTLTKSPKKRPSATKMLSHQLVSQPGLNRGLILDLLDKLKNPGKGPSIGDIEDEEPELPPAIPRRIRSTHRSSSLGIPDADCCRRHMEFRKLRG

In the case of `Cc1c(CC#N)ccnc1-c1cc(N)cc(-c2cnc3c(c2Cl)[C@@]2(CC[C@@](C)(C#N)C2)CN3)c1` (stereo in doubt) [Compound 274b, (1S,3R)-5′-(3-Amino-5-(4-(cyanomethyl)-3-methylpyridin-2-yl)phenyl)-4′-chloro-3-methyl-1′,2′-dihydrospiro[cyclopentane-1,3′-pyrrolo[2,3-b]pyridine]-3-carbonitrile], in test [1] (assayed concentration 0.926 μM), the “% IL relative to untreated cells” value was 564%. With `CC[C@H]1C[C@@]12CNc1ncc(-c3ccc(N)c(C(=O)N(C)C)c3F)cc12` [Compound 243a, 6-Amino-3-((1R,2S)-2-ethyl-1′,2′-dihydrospiro[cyclopropane-1,3′-pyrrolo[2,3-b]pyridin]-5′-yl)-2-fluoro-N,N-dimethylbenzamide], the “% IL relative to untreated cells” value in test [1] (assayed concentration 2.8 μM) came to 111%. The Ki is a dissociation constant, usually derived from enzyme kinetics or from competition with a known ligand. Lower therefore signals tighter binding. The compound `CN(C)C(=O)c1c(N)ccc(-c2cnc3c(c2Cl)[C@]2(CC[C@](C)(C#N)CC2)CN3)c1F` [Compound 250a, 6-Amino-3-((1s,4s)-4′-chloro-4-cyano-4-methyl-1′,2′-dihydrospiro[cyclohexane-1,3′-pyrrolo[2,3-b]pyridin]-5′-yl)-2-fluoro-N,N-dimethylbenzamide] displayed an inhibition constant Ki at HPK1 of 8.49 nM. Also, the “% IL relative to untreated cells” value in test [1] (assayed concentration 25 μM) turned out to be 504%. At HPK1, `CN(C)C(=O)c1c(N)ccc(-c2cnc3c(c2Cl)[C@]2(CC[C@@H](CO)C2)CN3)c1F` [Compound 259c, 6-Amino-3-((1R,3R)-4′-chloro-3-(hydroxymethyl)-1′,2′-dihydrospiro[cyclopentane-1,3′-pyrrolo[2,3-b]pyridin]-5′-yl)-2-fluoro-N,N-dimethylbenzamide] displayed a Ki of 3 nM. Besides, in test [1] (assayed concentration 8.3 μM), the “% IL relative to untreated cells” value turned out to be 604%. On to `Cc1c(CC#N)ccnc1-c1cccc(-c2cnc3c(c2Cl)[C@@]2(CC[C@@](C)(C(N)=O)C2)CN3)c1F` [Compound 267b, (1S,3R)-4′-Chloro-5′-(3-(4-(cyanomethyl)-3-methylpyridin-2-yl)-2-fluorophenyl)-3-methyl-1′,2′-dihydrospiro[cyclopentane-1,3′-pyrrolo[2,3-b]pyridine]-3-carboxamide], for which, in test [1] (assayed concentration 0.926 μM), the “% IL relative to untreated cells” value is listed as 298%. On to `CS(=N)(=O)c1ccc2[nH]cc(-c3cnc4c(c3)C3(CC3)CN4)c2c1` (stereo not drawn) [Compound 331, (3-(1′,2′-Dihydrospiro[cyclopropane-1,3′-pyrrolo[2,3-b]pyridin]-5′-yl)-1H-indol-5-yl)(imino)(methyl)-γ6-sulfanone], for which the inhibitory constant (Ki) at HPK1 worked out at 243 nM. Still for that read-out and setting: under `c1ccc2c(c1)nnn2-c1cnc2c(c1)C1(CC1)CN2` [Compound 332, 5-(Benzotriazol-1-yl)spiro[1,2-dihydropyrrolo[2,3-b]pyridine-3,1′-cyclopropane]] stands 570 nM. On the same count and under the same terms, the figure for `c1cc2c(-c3cnc4c(c3)C3(CC3)CN4)c[nH]c2cn1` [Compound 333, 5-(1H-Pyrrolo[2,3-c]pyridin-3-yl)spiro[1,2-dihydropyrrolo[2,3-b]pyridine-3,1′-cyclopropane]] is 42.3 nM; for `c1nnc(-c2ccc3[nH]cc(-c4cnc5c(c4)C4(CC4)CN5)c3c2)o1` [Compound 334, 2-(3-(1′,2′-Dihydrospiro[cyclopropane-1,3′-pyrrolo[2,3-b]pyridin]-5′-yl)-1H-indol-5-yl)-1,3,4-oxadiazole Formate Salt] it is 48 nM; for `Cn1cnnc1-c1ccc2[nH]cc(-c3cnc4c(c3)C3(CC3)CN4)c2c1` [Compound 335, 5′-(5-(4-Methyl-4H-1,2,4-triazol-3-yl)-1H-indol-3-yl)-1′,2′-dihydrospiro[cyclopropane-1,3′-pyrrolo[2,3-b]pyridine]] it is 130 nM. On HPK1, `Cc1cc2[nH]cc(-c3cnc4c(c3)C3(CC3)CN4)c2cc1-c1cnn(C)c1` [Compound 336, 5′-(6-Methyl-5-(1-methyl-1H-pyrazol-4-yl)-1H-indol-3-yl)-1′,2′-dihydrospiro[cyclopropane-1,3′-pyrrolo[2,3-b]pyridine]] returned a Ki of 46.6 nM. Still for that read-out and setting: under `Fc1ccc2[nH]cc(-c3cnc4c(c3)C3(CC3)CN4)c2c1` [Compound 338, 5′-(5-Fluoro-1H-indol-3-yl)-1′,2′-dihydrospiro[cyclopropane-1,3′-pyrrolo[2,3-b]pyridine]] stands 79.7 nM; under `CN(C)C(=O)c1ccc2[nH]cc(-c3cnc4c(c3)C3(CC3)CN4)c2c1` [Compound 339, 3-(1′,2′-Dihydrospiro[cyclopropane-1,3′-pyrrolo[2,3-b]pyridin]-5′-yl)-N,N-dimethyl-1H-indole-5-carboxamide], 373 nM; under `CN(c1cc(C#N)cc2c(-c3cnc4c(c3)C3(CC3)CN4)c[nH]c12)S(C)(=O)=O` [Compound 340, N-(5-Cyano-3-(1′,2′-dihydrospiro[cyclopropane-1,3′-pyrrolo[2,3-b]pyridin]-5′-yl)-1H-indol-7-yl)-N-methylmethanesulfonamide], 14.8 nM. `CN(c1cc(C#N)cc2c(-c3cnc4c(c3)C3(CC3)CN4)cn(C)c12)S(C)(=O)=O` [Compound 341, N-(5-Cyano-3-(1′,2′-dihydrospiro[cyclopropane-1,3′-pyrrolo[2,3-b]pyridin]-5′-yl)-1-methyl-1H-indol-7-yl)-N-methylmethanesulfonamide] registered a Ki on HPK1 of 12.4 nM. In turn, `N#CCc1ccc2[nH]cc(-c3cnc4c(c3)C3(CC3)CN4)c2c1` [Compound 342, 2-(3-(1′,2′-Dihydrospiro[cyclopropane-1,3′-pyrrolo[2,3-b]pyridin]-5′-yl)-1H-indol-5-yl)acetonitrile] returned a Ki at HPK1 of 73.4 nM. In turn, `CN(c1ccc2c(-c3cnc4c(c3)C3(CC3)CN4)c[nH]c2c1)c1cnn(C)c1` [Compound 343, 3-(1′,2′-Dihydrospiro[cyclopropane-1,3′-pyrrolo[2,3-b]pyridin]-5′-yl)-N-methyl-N-(1-methyl-1H-pyrazol-4-yl)-1H-indol-6-amine] came in with a Ki on HPK1 of 74 nM. `N#Cc1ccc2ccn(-c3cnc4c(c3)C3(CC3)CN4)c2c1` [Compound 344, 1-(1′,2′-Dihydrospiro[cyclopropane-1,3′-pyrrolo[2,3-b]pyridin]-5′-yl)-1H-indole-6-carbonitrile] gave a Ki on HPK1 of 590 nM. `Cn1cc(Nc2ccc3c(-c4cnc5c(c4)C4(CC4)CN5)c[nH]c3c2)cn1` [Compound 345, 3-(1′,2′-Dihydrospiro[cyclopropane-1,3′-pyrrolo[2,3-b]pyridin]-5′-yl)-N-(1-methyl-1H-pyrazol-4-yl)-1H-indol-6-amine] yielded a Ki on HPK1 of 94 nM.
